According to patent US20190298740A1, “METHODS AND COMPOSITIONS FOR TREATING HALLUCINATIONS AND CONDITIONS RELATED TO THE SAME” (Enterin, Inc., priority 2018, published 2019):

What was measured:
[1] = Safety and adverse event profile, Phase 2 trial; assay type: in vivo, human;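 on Diarrhea, common adverse events by dose: number of subjects experiencing the event at each dose level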;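 on Nausea, common adverse events by dose: number of subjects experiencing the event at each dose level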;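 on Vomiting, common adverse events by dose: number of subjects experiencing the event at each dose level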
Text: Tolerability limits included diarrhea or vomiting.

αS = αS (Homo sapiens, UniProt P37840); conditions: in vitro; cited from earlier work
mouse models of PD = conditions: cited from earlier work

In the case of `CC(C)[C@@H](CC[C@@H](C)[C@H]1CC[C@H]2[C@@H]3[C@H](O)C[C@H]4C[C@@H](NCCCNCCCCN)CC[C@]4(C)[C@H]3CC[C@]12C)OS(=O)(=O)O` (single isomer, unassigned) [squalamine (ENT-01)], the “Diarrhea, common adverse events by dose” value ([1]; Stage 1, 25 mg) is reported as 1, the “Nausea, common adverse events by dose” value ([1]; Stage 1, 25 mg) is reported as 0 and the “Vomiting, common adverse events by dose” value ([1]; Stage 1, 25 mg) is reported as 0. For the same compound, the “Diarrhea, common adverse events by dose” value ([1]; Stage 1, 50 mg) was 1, the “Nausea, common adverse events by dose” value ([1]; Stage 1, 50 mg) was 0 and the “Vomiting, common adverse events by dose” value ([1]; Stage 1, 50 mg) was 0. For the same compound, the “Diarrhea, common adverse events by dose” value ([1]; Stage 1, 75 mg) was 1, the “Nausea, common adverse events by dose” value ([1]; Stage 1, 75 mg) was 0 and the “Vomiting, common adverse events by dose” value ([1]; Stage 1, 75 mg) was 0. For the same compound, the “Diarrhea, common adverse events by dose” value ([1]; Stage 1, 100 mg) was 0, the “Nausea, common adverse events by dose” value ([1]; Stage 1, 100 mg) was 1 and the “Vomiting, common adverse events by dose” value ([1]; Stage 1, 100 mg) was 1. For the same compound, the “Diarrhea, common adverse events by dose” value ([1]; Stage 1, 125 mg) was 1, the “Nausea, common adverse events by dose” value ([1]; Stage 1, 125 mg) was 2 and the “Vomiting, common adverse events by dose” value ([1]; Stage 1, 125 mg) was 1. The “Diarrhea, common adverse events by dose” value ([1]; Stage 1, 150 mg) was 1, the “Nausea, common adverse events by dose” value ([1]; Stage 1, 150 mg) was 0 and the “Vomiting, common adverse events by dose” value ([1]; Stage 1, 150 mg) was 0. For the same compound, the “Diarrhea, common adverse events by dose” value ([1]; Stage 1, 175 mg) was 1, the “Nausea, common adverse events by dose” value ([1]; Stage 1, 175 mg) was 1 and the “Vomiting, common adverse events by dose” value ([1]; Stage 1, 175 mg) was 0. For the same compound, the “Diarrhea, common adverse events by dose” value ([1]; Stage 1, 200 mg) was 0, the “Nausea, common adverse events by dose” value ([1]; Stage 1, 200 mg) was 2 and the “Vomiting, common adverse events by dose” value ([1]; Stage 1, 200 mg) was 0. For the same compound, the “Diarrhea, common adverse events by dose” value ([1]; Stage 2, 75 mg) was 7, the “Dizziness (lightheadedness included), common adverse events by dose” value (from here on “Dizziness (lightheadedness included)”) ([1]; Stage 2, 75 mg) was 8 and the “Nausea, common adverse events by dose” value ([1]; Stage 2, 75 mg) was 3. The “Diarrhea, common adverse events by dose” value ([1]; Stage 2, 100 mg) was 10, the “Dizziness (lightheadedness included)” value ([1]; Stage 2, 100 mg) was 7 and the “Nausea, common adverse events by dose” value ([1]; Stage 2, 100 mg) was 12. For the same compound, the “Diarrhea, common adverse events by dose” value ([1]; Stage 2, 125 mg) was 3, the “Dizziness (lightheadedness included)” value ([1]; Stage 2, 125 mg) was 8 and the “Nausea, common adverse events by dose” value ([1]; Stage 2, 125 mg) was 4. For the same compound, the “Diarrhea, common adverse events by dose” value ([1]; Stage 2, 150 mg) was 2, the “Dizziness (lightheadedness included)” value ([1]; Stage 2, 150 mg) was 2 and the “Nausea, common adverse events by dose” value ([1]; Stage 2, 150 mg) was 11. The “Diarrhea, common adverse events by dose” value ([1]; Stage 2, 175 mg) was 1, the “Dizziness (lightheadedness included)” value ([1]; Stage 2, 175 mg) was 0 and the “Nausea, common adverse events by dose” value ([1]; Stage 2, 175 mg) was 12. For the same compound, the “Diarrhea, common adverse events by dose” value ([1]; Stage 2, 200 mg) was 3, the “Nausea, common adverse events by dose” value ([1]; Stage 2, 200 mg) was 6 and the “Diarrhea, common adverse events by dose” value ([1]; Stage 2, 225 mg) was 3. For the same compound, the “Nausea, common adverse events by dose” value ([1]; Stage 2, 225 mg) was 1, the “Diarrhea, common adverse events by dose” value ([1]; Stage 2, 250 mg) was 2 and the “Course of all other AEs” value ([1]; both stages) was “resolved spontaneously without discontinuation”. For the same compound, the “Formation of aggregates of αS” value (αS) was “inhibits the formation of αS aggregates” and the Gastrointestinal motility (mouse models of PD) was “restores gastrointestinal motility”.
